Tests used:
[1] = Loading (uptake) of target material into MSN, UV-Vis spectroscopy; assay type: physicochemical
[2] = cited from earlier work
[3] = Release of target material from MSN, UV-Vis spectroscopy; conditions: after subsequent pH decrease to approximately pH 5.0

Q: For `COc1cccc2c1C(=O)c1c(O)c3c(c(O)c1C2=O)C[C@@](O)(C(=O)CO)C[C@@H]3O[C@H]1C[C@H](N)[C@H](O)[C@H](C)O1` [doxorubicin], which “uptake into MSN” value [1] is on record?
A: Its value is “approximately 3 ug/mg MSN”.

Q: What about the pKa [2] of the same compound?
A: The pKa was roughly 7.

Q: And the “amount released per mg of MSN at equilibrium” value [3]?
A: The value was “about 7.5 ug per mg of MSN”.

Source: patent US9271936B2, “Method for forming mesoporous silica nanoparticles, mesoporous silica nanoparticles, and applications thereof” (UNIVERSITY OF MARYLAND, priority 2008, dated 2016)
